# Reference: article PMC3833349 (ACS Chemical Biology, 2013)
# Entries after “also recorded” stand apart in the source; their conditions may differ.
# Tests used:
# [1] = biological target: T1, FabG (Pseudomonas aeruginosa, UniProt O54438); test: Back Assay: FabG-catalyzed oxidation of 3-OH decanoyl-NAC, NADPH fluorescence; format: biochemical
# T1 sequence (O54438 1-247): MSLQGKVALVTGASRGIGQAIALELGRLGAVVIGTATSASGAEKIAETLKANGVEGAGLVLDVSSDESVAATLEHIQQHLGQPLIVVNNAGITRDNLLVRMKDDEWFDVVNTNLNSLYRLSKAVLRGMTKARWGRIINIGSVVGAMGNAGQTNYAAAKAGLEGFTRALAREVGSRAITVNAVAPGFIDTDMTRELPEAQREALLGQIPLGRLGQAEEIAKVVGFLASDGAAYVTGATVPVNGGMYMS
# [2] = biological target: T1, FabG; test: Forward Assay: FabG-catalyzed reduction of AcAcCoA, NADPH consumption at 340 nm
# [3] = tested on: Staphylococcus aureus RN4220; test: Phenotypic growth assay S. aureus; format: cell-based
# [4] = Lineweaver–Burk plot, 0-200 nM FG01
compound,measurement,setting,value
3-hydroxydecanoyl-N-acetylcysteamine [3-OH decanoyl-NAC],Km,"[1]; 3-OH decanoyl-NAC, not determinable, response linear at least to 0.3 mM",> 300 µM
"c1ccc(-c2nc(-n3cnnc3)c3ccccc3n2)cc1 [FG01, 2-phenyl-4-(1,2,4-triazol-4-yl)quinazoline]",mode of inhibition with respect to AcAcCoA,[2]; [4],mixed inhibition pattern
same,mode of inhibition with respect to NADPH,[2]; [4],noncompetitive mode of inhibition; also recorded: noncompetitive inhibition pattern
"Cn1ncc2c(NCCO)nc(Nc3ccc(F)c(F)c3)nc21 [FG39, 2-[[6-(3,4-difluoroanilino)-1-methylpyrazolo[3,4-d]pyrimidin-4-yl]amino]ethanol]",inhibition of cell growth,"[3]; S. aureus, 100 μM",35%
"COc1ccccc1Nc1cccc2nccnc12 [FG48, N-(2-methoxyphenyl)quinoxalin-5-amine]",effect on growth of S. aureus,[3]; concentration/effect curve,completely inhibited the growth
"NC(=O)C1=CN([C@@H]2O[C@H](COP(=O)(O)OP(=O)(O)OC[C@H]3O[C@@H](n4cnc5c(N)ncnc54)[C@H](OP(=O)(O)O)[C@@H]3O)[C@@H](O)[C@H]2O)C=CC1 [NADPH, reference compound]",Km,"[2]; NADPH, in the presence of 4 mM AcAcCoA",290 ± 30 µM
NC(=O)c1ccc[n+]([C@@H]2O[C@H](COP(=O)([O-])OP(=O)(O)OC[C@H]3O[C@@H](n4cnc5c(N)ncnc54)[C@H](OP(=O)(O)O)[C@@H]3O)[C@@H](O)[C@H]2O)c1 [NADP^+],Km,"[1]; NADP+, in the presence of 0.3 mM 3-OH decanoyl-NAC",290 µM
